One data set addresses T1, GR (Homo sapiens, UniProt P04150).
T1 construct: expressed in transfected cells; host or cells: CHO-K1
T1 sequence (P04150 1-777): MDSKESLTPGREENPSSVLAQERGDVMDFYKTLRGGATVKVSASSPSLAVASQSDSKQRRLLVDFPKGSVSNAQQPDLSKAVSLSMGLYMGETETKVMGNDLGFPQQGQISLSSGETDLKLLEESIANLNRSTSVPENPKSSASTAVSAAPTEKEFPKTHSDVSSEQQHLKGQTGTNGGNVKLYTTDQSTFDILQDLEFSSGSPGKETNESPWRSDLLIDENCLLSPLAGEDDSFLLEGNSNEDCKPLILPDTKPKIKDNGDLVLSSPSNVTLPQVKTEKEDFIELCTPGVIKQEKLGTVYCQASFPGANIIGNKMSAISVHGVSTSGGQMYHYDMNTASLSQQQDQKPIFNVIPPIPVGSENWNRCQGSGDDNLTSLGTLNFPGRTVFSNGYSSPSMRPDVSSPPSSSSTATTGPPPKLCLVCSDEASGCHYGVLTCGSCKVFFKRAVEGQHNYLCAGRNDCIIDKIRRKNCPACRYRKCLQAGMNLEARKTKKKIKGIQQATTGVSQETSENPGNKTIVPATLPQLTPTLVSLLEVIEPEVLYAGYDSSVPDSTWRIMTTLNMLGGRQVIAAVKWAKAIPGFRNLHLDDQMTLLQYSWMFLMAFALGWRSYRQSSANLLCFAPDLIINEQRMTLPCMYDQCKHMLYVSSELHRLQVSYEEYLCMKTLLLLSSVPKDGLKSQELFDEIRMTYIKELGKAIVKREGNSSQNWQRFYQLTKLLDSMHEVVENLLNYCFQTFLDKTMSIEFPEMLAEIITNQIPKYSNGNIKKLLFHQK
Briefly: In Vitro GR Luciferase Reporter Assay (antagonist mode, CHO-K1-GR-MMTV-Luc reporter cells). It counts as cell-based. The following applies: antagonist mode, 10 nM Dexamethasone. In a few lines:
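CHO-K1-GR-MMTV-Luc cells in phenol red-free DMEM with 10% CSS, stimulated with 10 nM dexamethasone (final) and treated with 8-point 1:5 compound dilutions for about 18-24 h at 37° C. Luciferase measured by OneGlo luminescence; IC50 derived for inhibition of GR activity.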
A general note: A reporter such as luciferase makes a cellular process visible.

The next data set addresses T2, CYP2C8 (Homo sapiens, UniProt P10632).
T2 construct: Pooled human microsomes were obtained from Sekisui XenoTech, KS; tissue Sekisui XenoTech, KS; host or cells: pooled human liver microsomes
T2 sequence (P10632 1-490): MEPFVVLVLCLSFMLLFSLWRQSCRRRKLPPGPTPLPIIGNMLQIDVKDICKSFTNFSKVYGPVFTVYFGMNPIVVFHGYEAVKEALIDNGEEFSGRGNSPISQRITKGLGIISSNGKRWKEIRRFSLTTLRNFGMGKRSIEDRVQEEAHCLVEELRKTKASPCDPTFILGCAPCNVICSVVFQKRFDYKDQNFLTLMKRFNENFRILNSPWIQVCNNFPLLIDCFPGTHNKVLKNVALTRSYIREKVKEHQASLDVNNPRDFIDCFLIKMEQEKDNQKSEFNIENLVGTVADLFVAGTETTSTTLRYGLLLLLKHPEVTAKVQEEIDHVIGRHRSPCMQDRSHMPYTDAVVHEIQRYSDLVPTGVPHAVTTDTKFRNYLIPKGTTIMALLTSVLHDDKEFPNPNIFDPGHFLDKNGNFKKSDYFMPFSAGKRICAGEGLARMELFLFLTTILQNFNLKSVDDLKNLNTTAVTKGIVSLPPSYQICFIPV
Briefly: CYP Inhibition Assay (CYP2C8, human liver microsomes, paclitaxel substrate). Type of data set: in vitro ADME. The following applies: pH 7.4; pooled human liver microsomes 0.1 mg/mL, probe substrate paclitaxel. The gist of the method: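 Pooled human liver microsomes (0.1 mg/mL) in 50 mM potassium phosphate pH 7.4 with compound, started with 1 mM NADPH, 5 min at 37° C, duplicate.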
A general note: Liver microsomes are vesicles of endoplasmic reticulum, rich in cytochrome P450 enzymes.

The values below come from patent publication US20210122730A1, “GLUCOCORTICOID RECEPTOR MODULATORS” (ORIC Pharmaceuticals, Inc., priority 2017, published 2021).

The term IC50 denotes the concentration needed to halve the response being measured. In general, inhibition refers to how much of the control response was suppressed. Low values mean a response near the control, high ones a response far below the control.

`Cn1ncc(S(=O)(=O)N(CC2CC2)[C@H]2CCC3=Cc4c(cnn4-c4ccc(F)cc4)C[C@]3(C(=O)c3ncc(C(F)(F)F)s3)C2)n1` [Example 194, N-(cyclopropylmethyl)-N-((4aS,6S)-1-(4-fluorophenyl)-4a-(5-(trifluoromethyl)thiazole-2-carbonyl)-4,4a,5,6,7,8-hexahydro-1H-benzo[f]indazol-6-yl)-2-methyl-2H-1,2,3-triazole-4-sulfonamide] registered an IC50 at GR of no more than 100 nM. This compound had an inhibition at 5 min against CYP2C8 of 50 to 75%.
The corresponding values for `Cn1ccc(S(=O)(=O)N(CC(C)(C)O)[C@H]2CCC3=Cc4c(cnn4-c4ccc(F)cc4)C[C@]3(C(=O)c3cc(C(F)(F)F)ccn3)C2)n1` [Example 195, N-((4aS,6S)-1-(4-fluorophenyl)-4a-(4-(trifluoromethyl)picolinoyl)-4,4a,5,6,7,8-hexahydro-1H-benzo[f]indazol-6-yl)-N-(2-hydroxy-2-methylpropyl)-1-methyl-1H-pyrazole-3-sulfonamide] are no more than 100 nM and 25 to 50%.
In the case of `Cn1ccc(S(=O)(=O)N(C2COC2)[C@H]2CCC3=Cc4c(cnn4-c4ccc(F)cc4)C[C@]3(C(=O)c3ncc(C(F)(F)F)s3)C2)n1` [Example 196, N-((4aS,6S)-1-(4-fluorophenyl)-4a-(5-(trifluoromethyl)thiazole-2-carbonyl)-4,4a,5,6,7,8-hexahydro-1H-benzo[f]indazol-6-yl)-1-methyl-N-(oxetan-3-yl)-1H-pyrazole-3-sulfonamide], the concentration for half-maximal inhibition (IC50) at GR was no more than 100 nM. At CYP2C8, the inhibition at 5 min lay in the range of 50 to 75%.
Turning to `Cn1ccc(S(=O)(=O)N(C2COC2)[C@H]2CCC3=Cc4c(cnn4-c4ccc(F)cc4)C[C@]3(C(=O)c3cc(C(F)(F)F)ccn3)C2)n1` [Example 198, N-((4aS,6S)-1-(4-fluorophenyl)-4a-(4-(trifluoromethyl)picolinoyl)-4,4a,5,6,7,8-hexahydro-1H-benzo[f]indazol-6-yl)-1-methyl-N-(oxetan-3-yl)-1H-pyrazole-3-sulfonamide], on GR, the concentration for half-maximal inhibition (IC50) was no more than 100 nM. This compound yielded an inhibition at 5 min against CYP2C8 of 25 to 50%.
The corresponding values for `CCN([C@H]1CCC2=Cc3c(cnn3-c3ccc(F)cc3)C[C@]2(C(=O)c2ncc(C(F)(F)F)s2)C1)S(=O)(=O)c1ccn(C)n1` [Example 199, N-ethyl-N-((4aS,6S)-1-(4-fluorophenyl)-4a-(5-(trifluoromethyl)thiazole-2-carbonyl)-4,4a,5,6,7,8-hexahydro-1H-benzo[f]indazol-6-yl)-1-methyl-1H-pyrazole-3-sulfonamide] are no more than 100 nM and 75 to 90%.
The corresponding values for `Cn1cnc(S(=O)(=O)N(C2CC2)[C@H]2CCC3=Cc4c(cnn4-c4ccc(F)cc4)C[C@]3(C(=O)c3ncc(C(F)(F)F)s3)C2)c1` [Example 201, N-cyclopropyl-N-((4aS,6S)-1-(4-fluorophenyl)-4a-(5 (trifluoromethyl)thiazole-2-carbonyl)-4,4a,5,6,7,8-hexahydro-1H-benzo[f]indazol-6-yl)-1-methyl-1H-imidazole-4-sulfonamide] are no more than 100 nM and no more than 25%.
Compound `Cn1cc(S(=O)(=O)[C@@]2(F)CCC3=Cc4c(cnn4-c4ccc(F)cc4)C[C@]3(C(=O)c3cc(C(F)(F)F)ccn3)C2)cn1` [Example 202, ((4aS,6S)-6-fluoro-1-(4-fluorophenyl)-6-((1-methyl-1H-pyrazol-4-yl)sulfonyl)-1,4,5,6,7,8-hexahydro-4aH-benzo[f]indazol-4a-yl)(4-(trifluoromethyl)pyridin-2-yl)methanone] registered an IC50 on GR of no more than 100 nM. The same compound had an inhibition at 5 min on CYP2C8 of 25 to 50%.
Turning to `Cn1ccc(S(=O)(=O)N(C2CCC2)[C@H]2CCC3=Cc4c(cnn4-c4ccc(F)cc4)C[C@]3(C(=O)c3ncc(C(F)(F)F)s3)C2)n1` [Example 203, N-cyclobutyl-N-((4aS,6S)-1-(4-fluorophenyl)-4a-(5 (trifluoromethyl)thiazole-2-carbonyl)-4,4a,5,6,7,8-hexahydro-1H-benzo[f]indazol-6-yl)-1-methyl-1H-pyrazole-3-sulfonamide], on GR, the half-maximal inhibitory concentration (IC50) was no more than 100 nM. This compound also had an inhibition at 5 min against CYP2C8 of 25 to 50%.
The corresponding values for `O=C(c1cc(C(F)(F)F)ccn1)[C@]12Cc3cnn(-c4ccc(F)cc4)c3C=C1CC[C@H](N(C1COC1)S(=O)(=O)c1ccc(F)cc1)C2` [Example 204, 4-fluoro-N-((4aS,6S)-1-(4-fluorophenyl)-4a-(4-(trifluoromethyl)picolinoyl)-4,4a,5,6,7,8-hexahydro-1H-benzo[f]indazol-6-yl)-N-(oxetan-3-yl)benzenesulfonamide] are no more than 100 nM and 25 to 50%.
The corresponding values for `Cn1ccc(S(=O)(=O)N(C2CCC2)[C@H]2CCC3=Cc4c(cnn4-c4ccc(F)cc4)C[C@]3(C(=O)c3cc(C(F)(F)F)ccn3)C2)n1` [Example 206, N-cyclobutyl-N-((4aS,6S)-1-(4-fluorophenyl)-4a-(4-(trifluoromethyl)picolinoyl)-4,4a,5,6,7,8-hexahydro-1H-benzo[f]indazol-6-yl)-1-methyl-1H-pyrazole-3-sulfonamide] are no more than 100 nM and 25 to 50%.
The corresponding values for `CC(C)N([C@H]1CCC2=Cc3c(cnn3-c3ccc(F)cc3)C[C@]2(C(=O)c2cc(C(F)(F)F)ccn2)C1)S(=O)(=O)c1ccc(F)cc1` [Example 210, 4-fluoro-N-((4aS,6S)-1-(4-fluorophenyl)-4a-(4-(trifluoromethyl)picolinoyl)-4,4a,5,6,7,8-hexahydro-1H-benzo[f]indazol-6-yl)-N-isopropylbenzenesulfonamide] are no more than 100 nM and 75 to 90%.
`CC(C)CN([C@H]1CCC2=Cc3c(cnn3-c3ccc(F)cc3)C[C@]2(C(=O)c2ncc(C(F)(F)F)s2)C1)S(=O)(=O)c1ccn(C)n1` [Example 212, N-((4aS,6S)-1-(4-fluorophenyl)-4a-(5-(trifluoromethyl)thiazole-2-carbonyl)-4,4a,5,6,7,8-hexahydro-1H-benzo[f]indazol-6-yl)-N-isobutyl-1-methyl-1H-pyrazole-3-sulfonamide] gave a concentration for half-maximal inhibition (IC50) on GR of no more than 100 nM. Moreover, at CYP2C8, the inhibition at 5 min fell in the range of 25 to 50%.
In the case of `CCN([C@H]1CCC2=Cc3c(cnn3-c3ccc(F)cc3)C[C@]2(C(=O)c2cc(C(F)(F)F)ccn2)C1)S(=O)(=O)c1cn(C)cn1` [Example 214, N-ethyl-N-((4aS,6S)-1-(4-fluorophenyl)-4a-(4-(trifluoromethyl)picolinoyl)-4,4a,5,6,7,8-hexahydro-1H-benzo[f]indazol-6-yl)-1-methyl-1H-imidazole-4-sulfonamide], the IC50 on GR is no more than 100 nM. This compound also had an inhibition at 5 min against CYP2C8 of no more than 25%.
The corresponding values for `CC(C)CN([C@H]1CCC2=Cc3c(cnn3-c3ccc(F)cc3)C[C@]2(C(=O)c2cc(C(F)(F)F)ccn2)C1)S(=O)(=O)c1ccn(C)n1` [Example 215, N-((4aS,6S)-1-(4-fluorophenyl)-4a-(4-(trifluoromethyl)picolinoyl)-4,4a,5,6,7,8-hexahydro-1H-benzo[f]indazol-6-yl)-N-isobutyl-1-methyl-1H-pyrazole-3-sulfonamide] are no more than 100 nM and 50 to 75%.
The corresponding values for `CCN([C@H]1CCC2=Cc3c(cnn3-c3ccc(F)cc3)C[C@]2(C(=O)c2ncc(C(F)(F)F)s2)C1)S(=O)(=O)c1cn(C)cn1` [Example 216, N-ethyl-N-((4aS,6S)-1-(4-fluorophenyl)-4a-(5-(trifluoromethyl)thiazole-2-carbonyl)-4,4a,5,6,7,8-hexahydro-1H-benzo[f]indazol-6-yl)-1-methyl-1H-imidazole-4-sulfonamide] are no more than 100 nM and 25 to 50%.
